Test results published in patent US20250127937A1, “FAP INHIBITOR” (UNIVERSITÄT HEIDELBERG, priority 2018, published 2025).
Like-named read-outs stand apart in the source and are kept apart here.

Experiments:
human FAP-α = human FAP-α (Homo sapiens (Human), UniProt Q12884); experiment: Competitive binding of radiolabeled compound to HT-1080-FAP cells against unlabeled compound; conditions: for IC50: read-out: IC50; for IC50-values: Cu-64 labeled
Experimental: Competition experiments were performed by simultaneous exposure to unlabeled (10^−5 M to 10^−9M) and radiolabeled compound for 60 min. […] For internalization experiments, surface bound activity was removed by incubating the cells with 1 M glycine-HCl buffer for 10 min. The radioactivity was measured using a γ-counter, normalized to 1 mio cells and calculated as percentage of applied dose (% ID).
The medium was replaced by 1 mL fresh medium without fetal calf serum. […] Competition experiments were performed by simultaneous exposure to unlabeled (10^−5 M to 10^−9 M) and radiolabeled compound for 60 min. […] In all experiments, the cells were washed with 1 mL phosphate-buffered saline pH 7.4 for 2 times and subsequently lysed with 1.4 ml lysis buffer (0.3 M NaOH, 0.2% SDS). Radioactivity was determined in a γ-counter (Cobra II, Packard), normalized to 1 mio cells and calculated as percentage of the applied dose (% ID). Each experiment was performed 3 times, and 3 repetitions per independent experiment were acquired.

[1] = test system: HT-1080-FAP tumor xenografts; experiment: Small-animal imaging (PET, scintigraphy) in HT-1080-FAP tumor bearing mice; type: in vivo, mouse; conditions: for tumor uptake in vivo: Tc-99m labeled, scintigraphy
Experimental: For in vivo experiments, 8 week old BALB/c nu/nu mice (Charles River) were subcutaneously inoculated into the right trunk with 5×10^6 with HT-1080-FAP, Capan-2 or SK-LMS-1 cells, respectively. When the size of the tumor reached approximately 1 cm^3, the radiolabeled compound was injected via the tail vein (˜10 MBq for small-animal PET imaging; ˜1 MBq for organ distribution). […] Images were reconstructed iteratively using the 3D-OSEM+MAP method and were converted to standardized uptake value (SUV) images. Quantification was done using a ROI technique and expressed as SUV mean. For organ distribution of Lu-177 labeled compound ([…]), the animals (n=3 for each time point) were sacrificed after indicated time points (from 30 min to 24 h). The distributed radioactivity was measured in all dissected organs and in blood using a γ-counter (Cobra Autogamma, Packard). The values are expressed as percentage of injected dose per gram of tissue (% ID/g).

[2] = Blood pool clearance from SUVmean of the heart; type: in vivo; conditions: for Plateau value (SUVmean): hypothetical plateau, two phase exponential decay of heart SUVmean; for Blood pool-clearence (T1/2 [min]): rate determining half-life, two phase exponential decay of heart SUVmean 0.375-60 min
Description: The calculated plateau values, which were higher for Ga-68 labeled FAPI-13, -21, -36 and AlF-18 labeled FAPI-74 theoretically correspond to a higher fraction of compound which is not cleared due to unspecific binding or by remaining in circulating (Table 12).

[3] = test system: HT-1080-FAP tumor xenografts; experiment: Organ distribution ex vivo in HT-1080-FAP tumor bearing nude mice; set-up: species or system mouse; conditions: for Tumor uptake 1 h / Tumor uptake 4 h / Tumor uptake 24 h: HT-1080-FAP tumor bearing nude mice, mean ± SD, n = 3
Experimental: For in vivo experiments, 8 week old BALB/c nu/nu mice (Charles River) were subcutaneously inoculated into the right trunk with 5×10^6 with HT-1080-FAP, Capan-2 or SK-LMS-1 cells, respectively. When the size of the tumor reached approximately 1 cm^3, the radiolabeled compound was injected via the tail vein (˜10 MBq for small-animal PET imaging; ˜1 MBq for organ distribution). PET imaging was performed up to 140 min after intravenous injection of 1 MBq of Ga-68 labeled compound per mouse using the Inveon PET small-animal PET scanner (Siemens). Images were reconstructed iteratively using the 3D-OSEM+MAP method and were converted to standardized uptake value (SUV) images. Quantification was done using a ROI technique and expressed as SUV mean. For organ distribution of Lu-177 labeled compound (approx. […] per mouse), the animals (n=3 for each time point) were sacrificed after indicated time points (from 30 min to 24 h). The distributed radioactivity was measured in all dissected organs and in blood using a γ-counter (Cobra Autogamma, Packard). The values are expressed as percentage of injected dose per gram of tissue (% ID/g).

HT-1080-FAP cells = experiment: Efflux experiments in HT-1080-FAP cells; type: cell-based, human; conditions: Cu-64 labeled
Experimental: Radioligand binding studies were performed using HT-1080-FAP cells. The radiolabeled compound was added to the cell culture and incubated for different time intervals ranging from 10 min to 24 h. Competition experiments were performed by simultaneous exposure to unlabeled (10^−5 M to 10^−9M) and radiolabeled compound for 60 min. For efflux experiments, radioactive medium was removed after incubation for 60 min and replaced by non-radioactive medium for time intervals ranging from 1 to 24 h. For internalization experiments, surface bound activity was removed by incubating the cells with 1 M glycine-HCl buffer for 10 min. The radioactivity was measured using a γ-counter, normalized to 1 mio cells and calculated as percentage of applied dose (% ID).
For radioligand binding studies, cells were seeded in 6-well plates and cultivated for 48 h to a final confluence of approx. 80-90% (1.2-2 mio cells/well). The medium was replaced by 1 mL fresh medium without fetal calf serum. The radiolabeled compound was added to the cell culture and incubated for different time intervals ranging from 10 min to 24 h. Competition experiments were performed by simultaneous exposure to unlabeled (10^−5 M to 10^−9 M) and radiolabeled compound for 60 min. For efflux experiments, radioactive medium was removed after incubation for 60 min and replaced by non-radioactive medium for time intervals ranging from 1 to 24 h. In all experiments, the cells were washed with 1 mL phosphate-buffered saline pH 7.4 for 2 times and subsequently lysed with 1.4 ml lysis buffer (0.3 M NaOH, 0.2% SDS). Radioactivity was determined in a γ-counter (Cobra II, Packard), normalized to 1 mio cells and calculated as percentage of the applied dose (% ID). Each experiment was performed 3 times, and 3 repetitions per independent experiment were acquired.

[4] = Lu-177-labeled compound, unlabeled compound as competitor, HT-1080-FAP cells

human FAP-α, sequence (Q12884 whole entry): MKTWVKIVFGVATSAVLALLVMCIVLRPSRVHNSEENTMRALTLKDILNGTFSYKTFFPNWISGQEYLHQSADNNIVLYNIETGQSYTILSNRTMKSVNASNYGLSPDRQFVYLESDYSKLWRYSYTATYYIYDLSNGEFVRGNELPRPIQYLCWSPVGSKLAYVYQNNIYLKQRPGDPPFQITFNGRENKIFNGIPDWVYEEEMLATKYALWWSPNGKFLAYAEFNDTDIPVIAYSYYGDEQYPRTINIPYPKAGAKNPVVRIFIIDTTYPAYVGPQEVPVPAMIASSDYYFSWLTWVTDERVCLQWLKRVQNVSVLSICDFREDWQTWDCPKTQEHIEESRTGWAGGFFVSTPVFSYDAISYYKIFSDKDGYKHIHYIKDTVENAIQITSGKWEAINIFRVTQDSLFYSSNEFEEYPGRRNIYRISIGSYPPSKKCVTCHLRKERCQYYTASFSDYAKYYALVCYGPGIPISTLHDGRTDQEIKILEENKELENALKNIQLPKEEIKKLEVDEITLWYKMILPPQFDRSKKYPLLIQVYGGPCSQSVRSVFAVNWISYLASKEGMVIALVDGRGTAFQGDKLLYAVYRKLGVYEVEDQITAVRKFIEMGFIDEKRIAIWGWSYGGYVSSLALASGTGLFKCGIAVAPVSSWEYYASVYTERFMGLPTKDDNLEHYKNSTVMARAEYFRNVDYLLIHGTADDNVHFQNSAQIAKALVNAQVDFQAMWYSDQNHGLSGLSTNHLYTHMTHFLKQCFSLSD

N#C[C@@H]1CC(F)(F)CN1C(=O)CNC(=O)c1ccnc2ccc(SCCCN3CCN(C(=O)CN4CCN(CC(=O)O)CCN(CC(=O)O)CCN(CC(=O)O)CC4)CC3)cc12 [FAPI-40]
IC50 (human FAP-α; [4]): 12.7 nM

N#C[C@@H]1CC(F)(F)CN1C(=O)CNC(=O)c1ccnc2ccc(OCCCN3CCN(CCN4CCN(CC(=O)O)CCN(CC(=O)O)CCN(CC(=O)O)CC4)CC3)cc12 [FAPI-47]
IC50 (human FAP-α; [4]): 42 nM

N#C[C@@H]1CC(F)(F)CN1C(=O)CNC(=O)c1ccnc2ccc(CCCCN3CCN(C(=O)CN4CCN(CC(=O)O)CCN(CC(=O)O)CCN(CC(=O)O)CC4)CC3)cc12 [FAPI-39]
IC50 (human FAP-α; [4]): 11.3 nM

N#C[C@@H]1CC(F)(F)CN1C(=O)CNC(=O)c1ccnc2ccc(OCCCN3CCN(C(=O)CN(Cc4nccn4CC(=O)O)Cc4nccn4CC(=O)O)CC3)cc12 [FAPI-19]
tumor uptake in vivo [1]: insufficient tumor uptake | IC50 (human FAP-α; Tc-99m labeled, HT-1080-FAP cells): 6.4 nM

N#C[C@@H]1CC(F)(F)CN1C(=O)CNC(=O)c1ccnc2ccc(NCCCN3CCN(C(=O)CN4CCN(CC(=O)O)CCN(CC(=O)O)CCN(CC(=O)O)CC4)CC3)cc12 [FAPI-41]
IC50 (human FAP-α; [4]): 8.3 nM

N#C[C@@H]1CC(F)(F)CN1C(=O)CNC(=O)c1ccnc2ccc(OCCCN3C[C@@H]4C[C@H]3CN4C(=O)CN3CCN(CC(=O)O)CCN(CC(=O)O)CCN(CC(=O)O)CC3)cc12 [FAPI-20]
IC50 (human FAP-α; [4]): 7.2 nM

N#C[C@@H]1CCCN1C(=O)CNC(=O)c1ccnc2ccc(OCCCN3CCN(C(=O)CN4CCN(CC(=O)O)CCN(CC(=O)O)CC4)CC3)cc12 [FAPI-74]
PET imaging findings ([1]; F-18 labeled (nicotinamide or AlF-18 NOTA), up to 140 min after i.v.): high target specificity and fast clearance | IC50 (human FAP-α; F-18-FAPI derivatives, table title says EC50, head says IC50): 9.2 nM | Plateau value (SUVmean) [2]: 0.32 | Blood pool-clearence (T1/2 [min]) [2]: 2.4 min

CN(CCCN1CCN(C(=O)CN2CCN(CC(=O)O)CCN(CC(=O)O)CCN(CC(=O)O)CC2)CC1)c1ccc2nccc(C(=O)NCC(=O)N3CC(F)(F)C[C@H]3C#N)c2c1 [FAPI-46]
IC50 (human FAP-α; [4]): 13.5 nM | tumor-blood-ratios ([3]; Lu labeled, 1, 4 and 24 h, compared with FAPI-04): significantly higher ratios than FAPI-04 | Plateau value (SUVmean) [2]: 0.19 | Blood pool-clearence (T1/2 [min]) [2]: 5.3 min

N#C[C@@H]1CC(F)(F)CN1C(=O)CNC(=O)c1ccnc2ccc(OCCCN3CCN(C(=O)CN(Cc4nccn4CC(=O)N[C@@H](CC(C(=O)O)C(=O)O)C(=O)O)Cc4nccn4CC(=O)N[C@@H](CC(C(=O)O)C(=O)O)C(=O)O)CC3)cc12 [FAPI-34]
tumor uptake in vivo [1]: continuously enriched within the tumor

CN(CCCN1CCN(C(=O)CN2CCN(CC(=O)O)CCN(CC(=O)O)CC2)CC1)c1ccc2nccc(C(=O)NCC(=O)N3CC(F)(F)C[C@H]3C#N)c2c1 [FAPI-52]
IC50-values (human FAP-α; HT-1080-FAP cells): lower nanomolar range

N#C[C@@H]1CC(F)(F)CN1C(=O)CNC(=O)c1ccnc2ccc(OCCCN3CCN(C(=O)CN4CCN(CC(=O)O)CCN(CC(=O)O)CC4)CC3)cc12 [FAPI-42]
IC50-values (human FAP-α; HT-1080-FAP cells): lower nanomolar range | calculated in vitro-half-life (efflux) (HT-1080-FAP cells): 720 min

N#C[C@@H]1CC(F)(F)CN1C(=O)CNC(=O)c1ccnc2ccc(OCCOCCOCCN3CCN(C(=O)CN4CCN(CC(=O)O)CCN(CC(=O)O)CCN(CC(=O)O)CC4)CC3)cc12 [FAPI-15]
IC50 (human FAP-α; [4]): 9.1 nM | Tumor uptake 1 h [3]: 3.4 ± 1.13 % ID/g | Tumor uptake 4 h [3]: 4.6 ± 0.32 % ID/g | Tumor uptake 24 h [3]: 1.1 ± 0.25 % ID/g

N#C[C@@H]1CC(F)(F)CN1C(=O)CNC(=O)c1ccnc2ccc(OCCCC3CCN(C(=O)CN4CCN(CC(=O)O)CCN(CC(=O)O)CCN(CC(=O)O)CC4)CC3)cc12 [FAPI-13]
IC50 (human FAP-α; [4]): 4.5 nM | Tumor uptake 1 h [3]: 6.3 ± 0.57 % ID/g | Tumor uptake 4 h [3]: 8.7 ± 0.77 % ID/g | Tumor uptake 24 h [3]: 4.8 ± 1.71 % ID/g | Plateau value (SUVmean) [2]: 0.27 | Blood pool-clearence (T1/2 [min]) [2]: 5.5 min

N#C[C@@H]1CC(F)(F)CN1C(=O)CNC(=O)c1ccnc2ccc(OCCCCN3CCN(C(=O)CN4CCN(CC(=O)O)CCN(CC(=O)O)CCN(CC(=O)O)CC4)CC3)cc12 [FAPI-05]
IC50 (human FAP-α; [4]): 17.2 nM | Tumor uptake 1 h [3]: 6.0 ± 0.90 % ID/g | Tumor uptake 4 h [3]: 5.8 ± 0.60 % ID/g | Tumor uptake 24 h [3]: 2.8 ± 0.40 % ID/g

N#C[C@@H]1CC(F)(F)CN1C(=O)CNC(=O)c1ccnc2ccc(OCCCN3CCN(CCCN4CCN(CC(=O)O)CCN(CC(=O)O)CCN(CC(=O)O)CC4)CC3)cc12 [FAPI-48]
IC50 (human FAP-α; [4]): 26.3 nM
